For eight molecules, melting point and MIC results are on record in patent US6476067B1, “N-formyl hydroxylamine derivatives as antibacterial agents” (British Biotech, priority 1998, dated 2002).

Converted amounts (≈) assume the structure as drawn. A value given as a limit tells only on which side of the number the result lay.

The term melting point denotes the temperature of the solid-liquid transition. Usually MIC stands for the lowest concentration that inhibits growth of the organism. Read a high MIC as a less susceptible organism.

In data set [1] the test system is Staphylococcus capitis (American Type Culture Collection number 35661). Description: Minimal inhibitory concentration (MIC), broth microdilution. The data set is classed as cell-based. As to conditions: ATCC35661, S. capitis ATCC 35661, 2×YT broth, 37° C., 18 hours, lowest concentration that inhibited visible growth. Here is the method: (§1) Minimal inhibitory concentrations (MIC) of inhibitors against E. colistrain DH5α (Genotype; F-φ80d/acZΔM15Δ(lacZYA-argF)U169 deoR recA1 endA1 hsdR17(rk^−,mk^+)phoA supE44λ^−thi-1 gyrA96 re/A1) obtained from GibcoBRL Life Technologies, or Staphylococcus capitis (American Type Culture Collection number 35661) were determined as follows. Stock solutions of each test compound were prepared by dissolution of the compound in dimethylsulfoxide at 10 mM. For the determination of the minimal inhibitory concentration, two fold serial dilutions were prepared in 2×YT broth (typtone-16 g/1, yeast extract 10 g/1, sodium chloride 5 g/1 obtained from BIO 101 Inc, 1070 Joshua Way, Vista, Calif. 92083, USA) to yield 0.05 ml compound-containing medium per well. Inocula were prepared from cultures grown overnight in 2×YT broth at 37° C. Cell densities were adjusted to absorbance at 660 nm (A660)=0.1; the optical density-standardized preparations were diluted 1:1000 in 2×YT broth; and each well inoculated with 0.05 ml of the diluted bacteria. Microtiter plates were incubated at 37° C. for 18 hours in a humidified incubator. The MIC (μM) was recorded as the lowest drug concentration that inhibited visible growth.
Background: Dilution methods test growth across graded concentrations, often in twofold steps.

The subject of data set [2] is E. coli strain DH5α. The data set is described as above. As to conditions: Escherichia coli, 2×YT broth, 37° C., 18 hours, lowest concentration that inhibited visible growth. The data set is classed as cell-based. Here is the method: as §1

For `O=CN(O)C[C@@H](CC1CCCC1)C(=O)N[C@@H](Cc1ccccc1)C(=O)OC1CCCC1` [Example 16, 2S-[2R-Cyclopentylmethyl-3-(formyl-hydroxy-amino)-propionylamino]-3-phenyl-propionic Acid Cyclopentyl Ester], the melting point was 76.8 to 78.5 °C. Take `CCCC[C@H](CN(O)C=O)C(=O)N[C@H](C(=O)OC1CCCC1)C(C)(C)C` [Example 3, 2S{-2R-[(Formyl-hydroxy-amino)-methyl]-hexanoylamino}-3,3-dimethyl Butyric Acid Cyclopentyl Ester]: the results for the MIC in data set [1] and in data set [2] were 12.5 µM (≈ 4.63 µg/mL) and 50 µM (≈ 18.5 µg/mL), respectively. For the molecule `CCCC[C@H](CN(O)C=O)C(=O)N[C@H](C(=O)OC(C)(C)C)C(C)(C)C` [Example 11, 2S-{2R-[(Formyl-hydroxy-amino)-methyl]-hexanoylamino}-3,3-dimethyl-butyric Acid Tert-butyl Ester], the melting point was 76.1 to 78.2 °C. Molecule `CCCC[C@H](CN(O)C=O)C(=O)N[C@H](C(=O)OC)C(C)(C)C` [Example 5, 2S-{2R-[(Formyl-hydroxy-amino)methyl]-hexanoylamino}-3,3-dimethyl Butyric Acid Methyl Ester] showed a melting point of 63.5 to 64.5 °C. The same molecule gave a minimal inhibitory concentration (MIC) in data set [1] of 200 µM (≈ 63.3 µg/mL). Also, 50 µM (≈ 15.8 µg/mL) was the least that counted as inhibitory in data set [2] (MIC).

Consider `CCCCC(CN(O)C=O)C(=O)N[C@H](C(=O)OC1CCCC1)C(C)C` (stereo partly drawn) [Example 6, 2S-{2R-[(Formyl-hydroxy-amino)methyl]-hexanoylamino}-3-methyl Butyric Acid Cyclopentyl Ester], for which the MIC was found to be 50 µM (≈ 17.8 µg/mL) in data set [1] and 100 µM (≈ 35.6 µg/mL) in data set [2]. In the same order, the values of `O=CN(O)CC(Cc1ccccc1)C(=O)N[C@@H](Cc1ccccc1)C(=O)OC1CCCC1` (stereo partly drawn) [Example 1, 2S-[2-(R,S)-Benzyl-3-(formyl-hydroxy-amino)-propionylamino]-3-phenyl-propionic acid cyclopentyl ester] are 12.5 µM (≈ 5.48 µg/mL) and 500 µM (≈ 219 µg/mL). In the same order, the values of `CCCC[C@H](CN(O)C=O)C(=O)N[C@@H](Cc1ccccc1)C(=O)OC1CCCC1` [Example 4, 2S-{2R-[(Formyl-hydroxy-amino)-methyl]-hexanoylamino}-3-phenyl-propionic Acid Cyclopentyl Ester] are 25 µM (≈ 10.1 µg/mL) and 200 to 300 µM (≈ 80.9 to 121 µg/mL). In the same order, the values of `CC(C)C[C@@H](C(=O)N[C@@H](Cc1ccccc1)C(=O)OC1CCCC1)C(C)N(O)C=O` (stereo partly drawn) [Example 2, 2S-{2R-[1-(R,S)-(Formyl-hydroxy-amino)-ethyl]-4-methyl-pentanoylamino}-3-phenylpropionic Acid Cyclopentyl Ester] are 200 to 300 µM (≈ 83.7 to 126 µg/mL) and > 200 µM.
